# According to patent US10258598B2, “Compounds for use in the prevention or treatment of cancer” ([…], priority 2014, dated 2019):
# Assays:
# noradrenergic neurons = conditions: Knoll et al., 1999, cited from earlier work
# [1] = test system: tetrabenazine-induced learning deficit; experiment: Shuttle box: conditioned avoidance reflex, antagonism of tetrabenazine-induced learning deficit; assay type: in vivo, rat; conditions: for very high dose range effective in antagonizing the tetrabenazine-induced learning deficit: attributed to inhibition of MAO-A; for optimal dose that exerted the specific enhancer effect: rats given 1 mg/kg tetrabenazine s.c. one hour prior to training
# Description: In a modified version of the shuttle box the acquisition of a two-way conditioned avoidance reflex (CAR) was analyzed during 5 consecutive days. The rat was put in a box divided inside into two parts by a barrier with a small gate in the middle, and the animal was trained to cross the barrier under the influence of a conditioned stimulus (CS, light flash). […] One trial consisted of 10 s intertrial interval, followed by 20 s CS. The last 5 s of CS overlaped the 5 s US. At each learning session, the number of CARs, EFs and intersignal reactions (IRs) are automatically counted and evaluated by multi-way ANOVA.
# Tetrabenazine-treatment (1 mg/kg s.c.) depletes at least 90% of norepinephrine and dopamine from their stores in the nerve terminals of the catecholaminergic neurons in the brain stem. Due to the weak performance of the catecholaminergic brain engine, the activation of the cortical neurons remains below the level required for the acquisition of a CAR. The learning deficit caused by tetrabenazine-treatment can be antagonized by the administration of a synthetic CAE substance or an A-type MAO inhibitor, whereas selective inhibition of B-type MAO or inhibition of the reuptake of catecholamines and/or serotonin is ineffective (Knoll et al., 1992).
# MAO-A = molecular target: T1, MAO-A (Rattus norvegicus, UniProt P21396); conditions: Knoll et al., 1999; cited from earlier work
# T1 construct: host or cells: animal dosed in mg/kg (in vivo)
# T1 sequence (P21396 1-526): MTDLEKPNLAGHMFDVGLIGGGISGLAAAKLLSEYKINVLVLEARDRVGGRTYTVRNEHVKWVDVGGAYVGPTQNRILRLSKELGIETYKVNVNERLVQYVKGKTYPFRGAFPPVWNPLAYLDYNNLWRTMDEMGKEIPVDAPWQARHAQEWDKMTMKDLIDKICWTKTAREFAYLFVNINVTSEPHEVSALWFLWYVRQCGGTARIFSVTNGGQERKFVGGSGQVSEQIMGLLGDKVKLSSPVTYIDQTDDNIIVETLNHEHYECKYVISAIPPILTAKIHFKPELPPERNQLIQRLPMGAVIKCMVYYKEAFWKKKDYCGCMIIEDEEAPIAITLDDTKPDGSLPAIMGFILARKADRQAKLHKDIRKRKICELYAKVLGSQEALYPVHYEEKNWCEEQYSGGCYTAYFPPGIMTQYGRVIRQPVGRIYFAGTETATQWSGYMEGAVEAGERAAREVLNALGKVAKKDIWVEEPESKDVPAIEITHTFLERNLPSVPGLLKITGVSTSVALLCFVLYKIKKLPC
# mammary tumors = conditions: ThyagaRajan et al. 1998; cited from earlier work
# [2] = test system: Wistar-Logan strain of rats; conditions: cited from earlier work
Structure (SMILES),"concentration range of the non-specific enhancer effect relative to the specific one (noradrenergic neurons; Knoll, Miklya, Knoll B, 2002)",concentration range of the specific enhancer effect (noradrenergic neurons),very high dose range effective in antagonizing the tetrabenazine-induced learning deficit [1] [µg/kg],optimal dose that exerted the specific enhancer effect [1] [µg/kg],"dose with the non-specific enhancer effect selected for the longevity study ([1]; rats given 1 mg/kg tetrabenazine s.c., for Deprenyl the less effective dose was chosen) [µg/kg]",dose that blocks the activity of MAO-A (MAO-A),form of the dose-effect relation of the enhancer effect ([1]; FIG. 3),dose inhibiting the development of mammary tumors (mammary tumors) [mg/kg body weight],rats that lived longer than the maximum lifespan ever observed in the strain ([2]; out of the 50 treated HP rats) [rats],"lifespan ([2]; sexually high performing (HP) rats treated for life, n=50, saline HP 151.24±1.36) [weeks]","lifespan versus saline-treated peers ([2]; sexually low performing (LP) rats treated for life, n=49, saline LP 134.58±2.29 weeks)"
"CCCN[C@H](CCC)Cc1cc2ccccc2o1 [(−)-BPAP, (R)-1-(benzofuran-2-yl)-2-propylamino pentane]",10 million times higher concentration range,femto/picomolar concentration range,2000 to 10000,0.1,50,higher than 2 mg/kg,–,–,–,–,–
"C#CCN(C)[C@H](C)Cc1ccccc1 [(−)-Deprenyl, (R)—N-methyl-N-(1-phenylpropan-2-yl)prop-2-yn-1-amine]",–,–,5000 to 10000,1,–,–,"bi-modal, bell-shaped dose-effect-relation",≥ 0.25,17,185.30±1.96,lived significantly longer than their saline treated peers
